According to US5945561A, “Retinoid-like compounds” (Bristol-Myers Squibb Company, priority 1998, dated 1999):

Experiments:
[1] = test system: trauma-induced caecal adhesions in female Wistar rat; experiment: Trauma-induced caecal adhesion model in rats (oral treatment once daily for 7 days, examined on seventh postoperative day); assay type: in vivo; conditions: 1 × daily for 7 days, N = 5, female Wistar rats; for Mean number of adhesions/rat +/- SD: vehicle (peanut oil) 15.4 +/- 4.8; for Mean Adhesion Severity/Rat +/- SD: vehicle (peanut oil) 39.2 +/- 15
Method: Models of peritoneal adhesions induced by surgical trauma have been used to predict the clinical activity of a number of marketed anti-adhesion barrier devices. One such model is the trauma-induced caecal adhesion model in rats.
Adult female Wistar rats were used in our studies. The trauma induction was carried out using aseptic conditions in animals anesthetized with a mixture of Ketamine (100 mg/kg) and Rompun (10 mg/kg) given IP. A 2 cm midline abdominal incision was made and the caecum was exteriorized. Both sides of the caecum were abraded with a dry gauze until there was evidence of punctate bleeding. After replacing the organ in the abdominal cavity, the incision was closed. Trauma to the caecum produces fibrous scar tissue or adhesions to adjacent organs, peritoneal wall, or the omentum. Animals were treated with test compound orally. Oral treatments were administered once daily for up to 7 days.
On the seventh postoperative day, the animals were sacrificed and the peritoneal cavity was exposed and examined for adhesions. Three criteria that were used to evaluate the adhesions are: severity of the adhesions, extent or area of the ceacum involved with adhesions and the number of adhesions formed in each animal. Statistical analysis of the data was performed using students' T test. The following scoring system was used:
1.0 = easily separable, filmy, non-vascularized adhesions
covering 25% of the caecum;
2.0 = dense adhesions separated by blunt dissection and in-
volving 50% of the caecum;
3.0 = dense, fibrous, vascularized adhesions requiring sharp
dissection and covering 75% of the caecum;
4.0 = severe, dense, vascularized adhesions unable to
separate without tearing the adjacent membranes and
covering greater than 75% of the caecum.
The Dose Dependent Effect of Orally Dosed Test Compound on Trauma-induced Ceacal Adhesions in Female Wistar Rat

[2] = test system: HL60 cells; experiment: Differentiation and apoptosis of HL60 cells (NBT staining); assay type: cell-based; conditions: culture up to 9 days; for EC50 (culture day necessary to convert cells into a differentiated or apoptosed phenotype): HL60 cells, 1 μm compound, NBT staining
Description: At the end of each day of the culture period, cells were washed and stained with NBT (nitro blue tetrazolium) and counted.

With `CC1(C)CC=C(c2ccccc2)c2cc3cc(-c4ccc(C(=O)O)cc4)ccc3cc21` [Example 1] the “Mean number of adhesions/rat +/- SD” value ([1]; 3 mg/kg oral) was 14.6 +/- 2.7, the “Mean Adhesion Severity/Rat +/- SD” value ([1]; 3 mg/kg oral) was 36 +/- 7.0 and the “Mean number of adhesions/rat +/- SD” value ([1]; 10 mg/kg oral) was 12.2 +/- 1.6. The “Mean Adhesion Severity/Rat +/- SD” value ([1]; 10 mg/kg oral) was 30.2 +/- 5.5, the “Mean number of adhesions/rat +/- SD” value ([1]; 25 mg/kg oral, * p = 0.03) was 6.8 +/- 2.4 and the “Mean Adhesion Severity/Rat +/- SD” value ([1]; 25 mg/kg oral, * p = 0.03) was 14.8 +/- 5.6. For the same compound, the “differentiation and apoptosis of HL60 cells, comparison with t-RA” value ([2]; 1 μm, result in words) was “comparable to t-RA in this assay” and the “EC50 (culture day necessary to convert cells into a differentiated or apoptosed phenotype)” value [2] was 6.0 days.
In the case of `CC1=C(/C=C/C(C)=C/C=C/C(C)=C/C(=O)O)C(C)(C)CCC1` [tRA, all-trans retinoic acid, reference compound], the “EC50 (culture day necessary to convert cells into a differentiated or apoptosed phenotype)” value [2] is reported as 3.2 days.
